This note sets out measurements from PMC12518996 (Frontiers in Pharmacology, 2025).

What all share (assay type): in vitro ADME
The target in one data set is T1, AOX (Homo sapiens, UniProt Q06278).
T1 sequence (Q06278 1-1338): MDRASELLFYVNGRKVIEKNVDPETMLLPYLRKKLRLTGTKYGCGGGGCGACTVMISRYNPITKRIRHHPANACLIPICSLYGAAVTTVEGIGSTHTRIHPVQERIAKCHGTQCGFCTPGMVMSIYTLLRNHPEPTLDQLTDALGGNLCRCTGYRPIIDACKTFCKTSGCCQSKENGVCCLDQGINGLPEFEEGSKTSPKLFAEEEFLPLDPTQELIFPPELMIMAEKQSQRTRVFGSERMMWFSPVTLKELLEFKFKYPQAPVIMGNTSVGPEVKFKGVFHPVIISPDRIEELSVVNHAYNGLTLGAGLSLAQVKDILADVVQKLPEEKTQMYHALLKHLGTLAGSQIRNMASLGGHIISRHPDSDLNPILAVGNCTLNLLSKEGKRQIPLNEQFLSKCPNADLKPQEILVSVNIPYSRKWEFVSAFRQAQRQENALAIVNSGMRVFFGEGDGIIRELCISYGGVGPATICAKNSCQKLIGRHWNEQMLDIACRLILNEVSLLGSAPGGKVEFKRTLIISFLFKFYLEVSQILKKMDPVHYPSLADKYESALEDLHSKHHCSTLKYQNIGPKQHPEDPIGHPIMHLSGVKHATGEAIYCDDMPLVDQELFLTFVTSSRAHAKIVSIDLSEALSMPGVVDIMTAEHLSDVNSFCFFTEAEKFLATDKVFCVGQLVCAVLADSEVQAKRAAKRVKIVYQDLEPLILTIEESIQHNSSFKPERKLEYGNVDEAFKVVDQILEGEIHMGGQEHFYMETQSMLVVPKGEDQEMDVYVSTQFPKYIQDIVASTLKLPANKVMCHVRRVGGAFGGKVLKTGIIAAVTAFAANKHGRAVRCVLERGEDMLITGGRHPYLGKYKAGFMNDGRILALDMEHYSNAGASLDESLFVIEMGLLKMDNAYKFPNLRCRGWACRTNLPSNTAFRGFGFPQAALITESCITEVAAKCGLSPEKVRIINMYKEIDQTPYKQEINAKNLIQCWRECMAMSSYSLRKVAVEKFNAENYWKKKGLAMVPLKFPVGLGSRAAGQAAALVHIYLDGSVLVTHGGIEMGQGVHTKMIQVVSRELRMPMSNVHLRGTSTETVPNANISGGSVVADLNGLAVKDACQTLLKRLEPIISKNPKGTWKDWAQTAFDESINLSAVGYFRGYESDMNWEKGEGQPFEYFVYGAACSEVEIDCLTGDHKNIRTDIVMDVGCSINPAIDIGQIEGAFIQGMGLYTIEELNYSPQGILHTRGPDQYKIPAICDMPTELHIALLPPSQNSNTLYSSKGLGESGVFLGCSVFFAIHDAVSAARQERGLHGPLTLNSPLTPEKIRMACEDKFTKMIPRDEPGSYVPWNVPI
Kind of data set: Metabolite formation by recombinant human AOX. The following applies: trazodone 4 μM; 37 °C, 40 min.

In a further data set the target is T2, CYP2A6 (Homo sapiens, UniProt P11509).
T2 sequence (P11509 1-494): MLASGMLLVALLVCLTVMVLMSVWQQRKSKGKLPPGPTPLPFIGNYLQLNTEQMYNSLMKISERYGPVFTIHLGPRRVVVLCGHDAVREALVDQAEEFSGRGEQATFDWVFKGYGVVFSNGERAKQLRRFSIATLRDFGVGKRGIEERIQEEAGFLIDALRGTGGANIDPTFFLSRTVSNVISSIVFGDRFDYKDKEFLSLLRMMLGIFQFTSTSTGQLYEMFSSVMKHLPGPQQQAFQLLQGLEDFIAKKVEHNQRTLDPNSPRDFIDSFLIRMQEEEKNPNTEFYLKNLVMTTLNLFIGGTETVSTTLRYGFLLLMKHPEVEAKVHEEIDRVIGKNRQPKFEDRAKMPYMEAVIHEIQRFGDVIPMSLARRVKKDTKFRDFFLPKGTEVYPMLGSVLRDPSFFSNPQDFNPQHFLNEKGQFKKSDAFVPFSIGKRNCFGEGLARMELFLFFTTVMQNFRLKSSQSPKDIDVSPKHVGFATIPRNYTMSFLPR
Kind of data set: Metabolite formation by recombinant human CYP2A6. The following applies: trazodone 4 μM; NADPH; 37 °C, 40 min. As for the experimental part:
To confirm the role of individual CYP isoforms in metabolizing trazodone, recombinant human and rat CYP enzymes were employed in separate incubations. […] Each reaction was terminated with acetonitrile, centrifuged, and the supernatant was analyzed by identical UHPLC-Orbitrap setup outlined in §2.2, allowing direct comparison of metabolite spectra across all in-vitro systems. […] This procedure helped confirm the contributions of individual isoforms to specific biotransformation reactions.

For a further data set, the target named is CYP2C9 (Homo sapiens, UniProt P11712). Kind of data set: Metabolite formation by recombinant human CYP2C9. The conditions noted are these: trazodone 4 μM; NADPH; 37 °C, 40 min. As for the experimental part:
(§1) Each reaction was terminated with acetonitrile, centrifuged, and the supernatant was analyzed by identical UHPLC-Orbitrap setup outlined in §2.2, allowing direct comparison of metabolite spectra across all in-vitro systems.

A further data set deals with T3, CYP3A9 (Rattus norvegicus, UniProt P51538).
T3 sequence (P51538 1-503): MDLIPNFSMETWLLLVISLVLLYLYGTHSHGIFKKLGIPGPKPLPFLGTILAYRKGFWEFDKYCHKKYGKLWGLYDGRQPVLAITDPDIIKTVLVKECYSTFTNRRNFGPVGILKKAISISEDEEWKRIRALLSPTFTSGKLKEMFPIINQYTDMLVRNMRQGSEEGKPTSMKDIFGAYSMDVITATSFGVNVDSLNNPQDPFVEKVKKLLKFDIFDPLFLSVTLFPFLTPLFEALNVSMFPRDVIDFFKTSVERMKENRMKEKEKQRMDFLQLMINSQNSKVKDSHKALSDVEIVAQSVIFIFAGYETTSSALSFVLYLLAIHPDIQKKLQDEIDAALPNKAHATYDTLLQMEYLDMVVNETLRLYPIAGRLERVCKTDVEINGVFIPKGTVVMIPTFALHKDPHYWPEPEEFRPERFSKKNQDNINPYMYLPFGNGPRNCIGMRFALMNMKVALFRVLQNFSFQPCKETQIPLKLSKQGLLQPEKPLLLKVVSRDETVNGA
As to the kind of experiment: Metabolite formation by recombinant rat CYP3A9. The conditions noted are these: trazodone 4 μM; NADPH; 37 °C, 40 min. As for the experimental part:
as §1

Sequence of CYP2C9 (P11712 whole entry): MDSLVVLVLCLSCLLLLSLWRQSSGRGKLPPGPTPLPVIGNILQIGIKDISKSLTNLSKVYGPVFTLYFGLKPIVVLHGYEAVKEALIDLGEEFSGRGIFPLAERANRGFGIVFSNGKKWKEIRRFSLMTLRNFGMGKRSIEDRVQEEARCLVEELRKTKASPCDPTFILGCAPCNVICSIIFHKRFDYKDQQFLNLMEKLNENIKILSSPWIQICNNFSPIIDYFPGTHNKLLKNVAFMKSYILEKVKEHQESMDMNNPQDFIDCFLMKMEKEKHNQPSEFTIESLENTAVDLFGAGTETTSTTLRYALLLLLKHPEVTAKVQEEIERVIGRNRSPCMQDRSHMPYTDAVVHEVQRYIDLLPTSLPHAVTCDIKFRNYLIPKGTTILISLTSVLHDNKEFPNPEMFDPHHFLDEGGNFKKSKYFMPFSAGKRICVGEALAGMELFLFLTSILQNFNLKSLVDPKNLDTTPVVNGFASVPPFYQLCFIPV

For `O=c1n(CCCN2CCNCC2)nc2ccccn12` [Metabolite M15], the “Formation of trazodone phase I metabolite by recombinant human AOX (as LC/MS peak areas)” value at AOX turned out to be 0. Moreover, the “Formation of trazodone phase I metabolite by recombinant human CYP2A6 (as LC/MS peak areas)” value on CYP2A6 is recorded as 0. For the same compound, the “Formation of trazodone phase I metabolite by recombinant human CYP2C9 (as LC/MS peak areas)” value at CYP2C9 was 0. For the same compound, the “Formation of trazodone phase I metabolite by recombinant rat CYP3A9 (as LC/MS peak areas)” value at CYP3A9 is listed as 719.

With `O=c1n(CCCO)nc2ccccn12` [Metabolite M20], the “Formation of trazodone phase I metabolite by recombinant human AOX (as LC/MS peak areas)” value at AOX is on record as 0. The “Formation of trazodone phase I metabolite by recombinant human CYP2A6 (as LC/MS peak areas)” value at CYP2A6 was found to be 0. For the same compound, at CYP2C9, the “Formation of trazodone phase I metabolite by recombinant human CYP2C9 (as LC/MS peak areas)” value worked out at 0. In addition, the “Formation of trazodone phase I metabolite by recombinant rat CYP3A9 (as LC/MS peak areas)” value at CYP3A9 was 1080.

In the case of `Clc1cccc(N2CCNCC2)c1` [mCPP, m-chlorophenylpiperazine], the “Formation of trazodone phase I metabolite by recombinant human AOX (as LC/MS peak areas)” value on AOX was determined as 106. Moreover, the “Formation of trazodone phase I metabolite by recombinant human CYP2A6 (as LC/MS peak areas)” value at CYP2A6 amounted to 8. The “Formation of trazodone phase I metabolite by recombinant human CYP2C9 (as LC/MS peak areas)” value on CYP2C9 was found to be 40. For the same compound, the “Formation of trazodone phase I metabolite by recombinant rat CYP3A9 (as LC/MS peak areas)” value at CYP3A9 is 18577.
